What was measured:
[1] = doses of 5, 10 and 20 mg daily; cited from earlier work
[2] = target: T1, human cannabis CB1 receptor (Homo sapiens, UniProt P21554); assay: Affinity for cannabinoid CB1 receptor, [3H]-CP-55,940 radioligand binding on HEK cell membranes; settings: affinity for the CB1 receptor
T1 construct: expressed in transfected cells; host or cells: human embryonic kidney (HEK) cells, Semliki Forest Virus system, membrane preparation
Procedure: The affinity of the compounds of the invention for cannabinoid CB1 receptors was determined using membrane preparations of human embryonic kidney (HEK) cells in which the human cannabis CB1 receptor is transiently transfected using the Semliki Forest Virus system in conjunction with [3H]-CP-55,940 as radioligand. After incubation of a freshly prepared cell membrane preparation with the [3H]-ligand, with or without addition of compounds of the invention, separation of bound and free ligand was performed by filtration over glassfiber filters. Radioactivity on the filter was measured by liquid scintillation counting.

T1 sequence (P21554 whole entry): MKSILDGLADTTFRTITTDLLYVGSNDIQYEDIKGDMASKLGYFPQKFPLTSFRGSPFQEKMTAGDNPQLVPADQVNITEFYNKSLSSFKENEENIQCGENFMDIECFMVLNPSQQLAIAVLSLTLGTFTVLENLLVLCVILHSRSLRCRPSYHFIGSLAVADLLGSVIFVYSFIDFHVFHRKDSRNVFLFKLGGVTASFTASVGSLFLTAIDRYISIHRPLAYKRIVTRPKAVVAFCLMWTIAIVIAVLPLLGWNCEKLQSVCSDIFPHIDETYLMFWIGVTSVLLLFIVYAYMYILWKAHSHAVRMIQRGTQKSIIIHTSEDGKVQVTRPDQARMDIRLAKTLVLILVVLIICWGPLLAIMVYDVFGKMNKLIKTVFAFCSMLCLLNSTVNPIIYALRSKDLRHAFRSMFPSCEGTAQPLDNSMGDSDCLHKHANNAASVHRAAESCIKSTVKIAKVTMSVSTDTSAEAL

Row | SMILES | body weight compared to placebo [1] | IC50 [2]
1 | Cc1c(C(=O)NN2CCCCC2)nn(-c2ccc(Cl)cc2Cl)c1-c1ccc(Cl)cc1 [SR 141716] | significantly reduced body weight | 
2 | O=C(c1ccc2c(c1)OC1(O2)c2ccc(Cl)cc2CCc2cc(Cl)ccc21)C1CCNCC1 [Example 2, 4-[(2′,8′-dichloro-10′,11′-dihydrospiro[1,3-benzodioxole-2,5′-[5H]dibenzo[a,d]cyclohepten]-5-yl)carbonyl]-piperidine] |  | 18 nM
3 | O=C(c1cc2c(cc1F)OC1(O2)c2ccc(Cl)cc2CCc2cc(Cl)ccc21)N1CCOCC1 [Example 1, 4-[(2′,8′-dichloro-6-fluoro-10′,11′-dihydrospiro[1,3-benzodioxole-2,5′-[5H]dibenzo[a,d]cyclohepten]-5-yl)carbonyl]-morpholine] |  | 13 nM
